Assay results taken from ChEMBL document CHEMBL4219265, “Piperlongumine derivative, CG-06, inhibits STAT3 activity by direct binding to STAT3 and regulating the reactive oxygen species in DU145 prostate carcinoma cells” (Bioorg Med Chem Lett, 2018).

Assays:
[1] = system: PC-3; test: Growth inhibition of human PC3 cells after 48 hrs by WST-1 assay; type: functional; settings: PC-3, 48 h
[2] = biological target: T1, Signal transducer and activator of transcription 3 (Homo sapiens, UniProt P40763); test: Inhibition of STAT3 phosphorylation at Tyr705 residues in human DU145 cells assessed as ratio of phosphorylated STAT3 protein level to GAPDH protein level at 0.1 uM after 24 hrs by Western blot analysis (reference value: 1); type: cell-based
[3] = system: DU-145; test: Effect on total STAT3 protein level in human DU145 cells assessed as ratio of STAT3 protein level to GAPDH protein level at 0.1 uM after 24 hrs by Western blot analysis (reference value: 1); type: ADME, cell-based; settings: du-145, 24 h
[4] = system: DU-145; test: Effect on total STAT3 protein level in human DU145 cells assessed as ratio of STAT3 protein level to GAPDH protein level at 5 uM after 24 hrs by Western blot analysis (reference value: 1); type: ADME, cell-based; settings: du-145, 24 h
[5] = biological target: T1, Signal transducer and activator of transcription 3; test: Inhibition of STAT3 phosphorylation at Tyr705 residues in human DU145 cells assessed as ratio of phosphorylated STAT3 protein level to GAPDH protein level at 5 uM after 0.5 hrs by Western blot analysis (reference value: 1); type: cell-based
[6] = biological target: T1, Signal transducer and activator of transcription 3; test: Inhibition of STAT3 phosphorylation at Tyr705 residues in human DU145 cells assessed as ratio of phosphorylated STAT3 protein level to GAPDH protein level at 5 uM after 6 hrs by Western blot analysis (reference value: 1); type: cell-based
[7] = system: DU-145; test: Effect on total STAT3 protein level in human DU145 cells assessed as ratio of STAT3 protein level to GAPDH protein level at 5 uM after 0.5 hrs by Western blot analysis (reference value: 1); type: ADME, cell-based; settings: du-145, 0.5 h
[8] = system: DU-145; test: Effect on total STAT3 protein level in human DU145 cells assessed as ratio of STAT3 protein level to GAPDH protein level at 5 uM after 3 hrs by Western blot analysis (reference value: 1); type: ADME, cell-based; settings: du-145, 3 h
[9] = biological target: T1, Signal transducer and activator of transcription 3; test: Inhibition of STAT3 in human DU145 cells assessed as ratio of cyclin D1 protein level to tubulin protein level at 5 uM after 48 hrs by Western blot analysis (reference value: 1); type: cell-based
[10] = biological target: T1, Signal transducer and activator of transcription 3; test: Inhibition of STAT3 in human DU145 cells assessed as ratio of Bcl-2 protein level to tubulin protein level at 5 uM after 48 hrs by Western blot analysis (reference value: 1); type: cell-based
[11] = biological target: T1, Signal transducer and activator of transcription 3; test: Inhibition of STAT3 in human DU145 cells assessed as ratio of survivin protein level to tubulin protein level at 5 uM after 48 hrs by Western blot analysis (reference value: 1); type: cell-based
[12] = biological target: T1, Signal transducer and activator of transcription 3; test: Inhibition of STAT3 in human DU145 cells assessed as ratio of PARP protein level to tubulin protein level at 5 uM after 48 hrs by Western blot analysis (reference value: 1); type: cell-based
[13] = biological target: T1, Signal transducer and activator of transcription 3; test: Inhibition of IL-6-mediated STAT3 phosphorylation in human LNCAP cells assessed as ratio of phosphorylated STAT3 protein level to GAPDH protein level at 5 uM preincubated for 12 hrs followed by IL-6 stimulation for 30 mins by Western blot analysis (reference value: 7.5); type: cell-based
[14] = system: DU-145; test: Cell cycle arrest in human DU145 cells assessed as accumulation at G0/G1 phase at 5 uM after 12 hrs by flow cytometry (reference value: 24.07%); type: functional
[15] = system: DU-145; test: Cell cycle arrest in human DU145 cells assessed as accumulation at G2/M phase at 5 uM after 12 hrs by flow cytometry (reference value: 18.12%); type: functional
[16] = system: DU-145; test: Induction of apoptosis in human DU145 cells at 5 uM after 24 hrs by flow cytometry (reference value: 0.61%); type: functional
[17] = system: DU-145; test: Cell cycle arrest in human DU145 cells assessed as accumulation at G0/G1 phase at 5 uM after 24 hrs by flow cytometry (reference value: 24.07%); type: functional
[18] = system: DU-145; test: Cell cycle arrest in human DU145 cells assessed as accumulation at G2/M phase at 5 uM after 24 hrs by flow cytometry (reference value: 18.12%); type: functional
[19] = system: DU-145; test: Cell cycle arrest in human DU145 cells assessed as accumulation at G0/G1 phase at 5 uM after 48 hrs by flow cytometry (reference value: 24.07%); type: functional
[20] = biological target: T1, Signal transducer and activator of transcription 3; test: Binding affinity to STAT3 in human DU145 cell lysates assessed as reduction in pronase-induced STAT3 digestion by measuring ratio of STAT3 protein level to GAPDH protein level at 50 uM incubated for 1 hr followed by 0.01% pronase addition for 10 mins by Western blot analysis (reference value: 0.7)
[21] = biological target: T1, Signal transducer and activator of transcription 3; test: Binding affinity to STAT3 in human DU145 cell lysates assessed as reduction in pronase-induced STAT3 digestion by measuring ratio of STAT3 protein level to GAPDH protein level at 50 uM incubated for 1 hr followed by 0.02% pronase addition for 10 mins by Western blot analysis (reference value: 0.6)
[22] = biological target: T1, Signal transducer and activator of transcription 3; test: Binding affinity to STAT3 in human DU145 cell lysates assessed as reduction in pronase-induced STAT3 digestion by measuring ratio of STAT3 protein level to GAPDH protein level at 50 uM incubated for 1 hr followed by 0.1% pronase addition for 10 mins by Western blot analysis (reference value: 0.2)
[23] = biological target: T1, Signal transducer and activator of transcription 3; test: Binding affinity to STAT3 in human DU145 cell lysates assessed as reduction in pronase-induced STAT3 digestion by measuring ratio of STAT3 protein level to GAPDH protein level at 100 uM incubated for 1 hr in absence of pronase by Western blot analysis (reference value: 1)
[24] = biological target: T1, Signal transducer and activator of transcription 3; test: Binding affinity to STAT3 in human DU145 cell lysates assessed as reduction in pronase-induced STAT3 digestion by measuring ratio of STAT3 protein level to GAPDH protein level at 50 uM incubated for 1 hr followed by 0.05% pronase addition for 10 mins by Western blot analysis (reference value: 1)
[25] = biological target: T1, Signal transducer and activator of transcription 3; test: Binding affinity to STAT3 in human DU145 cell lysates assessed as reduction in pronase-induced STAT3 digestion by measuring ratio of STAT3 protein level to GAPDH protein level incubated for 1 hr followed by 0.05% pronase addition for 10 mins by Western blot analysis
[26] = biological target: T1, Signal transducer and activator of transcription 3; test: Inhibition of STAT3-induced ERK1/2 phosphorylation in human DU145 cells assessed as ratio of phosphorylated ERK1/2 protein level to GAPDH protein level at 5 uM after 1 hr by Western blot analysis (reference value: 1); type: cell-based
[27] = biological target: T1, Signal transducer and activator of transcription 3; test: Inhibition of STAT3-induced ERK1/2 phosphorylation in human DU145 cells assessed as ratio of phosphorylated ERK1/2 protein level to GAPDH protein level at 5 uM after 6 hrs by Western blot analysis (reference value: 1); type: cell-based
[28] = biological target: T1, Signal transducer and activator of transcription 3; test: Inhibition of STAT3-induced ERK1/2 phosphorylation in human DU145 cells assessed as ratio of phosphorylated ERK1/2 protein level to GAPDH protein level at 5 uM after 12 hrs by Western blot analysis (reference value: 1); type: cell-based
[29] = biological target: T1, Signal transducer and activator of transcription 3; test: Inhibition of STAT3 in human DU145 cells assessed as increase in ERK1/2 phosphorylation at 5 uM by Western blot analysis; type: cell-based; settings: TDE = time-dependent effect

T1 sequence (P40763 whole entry): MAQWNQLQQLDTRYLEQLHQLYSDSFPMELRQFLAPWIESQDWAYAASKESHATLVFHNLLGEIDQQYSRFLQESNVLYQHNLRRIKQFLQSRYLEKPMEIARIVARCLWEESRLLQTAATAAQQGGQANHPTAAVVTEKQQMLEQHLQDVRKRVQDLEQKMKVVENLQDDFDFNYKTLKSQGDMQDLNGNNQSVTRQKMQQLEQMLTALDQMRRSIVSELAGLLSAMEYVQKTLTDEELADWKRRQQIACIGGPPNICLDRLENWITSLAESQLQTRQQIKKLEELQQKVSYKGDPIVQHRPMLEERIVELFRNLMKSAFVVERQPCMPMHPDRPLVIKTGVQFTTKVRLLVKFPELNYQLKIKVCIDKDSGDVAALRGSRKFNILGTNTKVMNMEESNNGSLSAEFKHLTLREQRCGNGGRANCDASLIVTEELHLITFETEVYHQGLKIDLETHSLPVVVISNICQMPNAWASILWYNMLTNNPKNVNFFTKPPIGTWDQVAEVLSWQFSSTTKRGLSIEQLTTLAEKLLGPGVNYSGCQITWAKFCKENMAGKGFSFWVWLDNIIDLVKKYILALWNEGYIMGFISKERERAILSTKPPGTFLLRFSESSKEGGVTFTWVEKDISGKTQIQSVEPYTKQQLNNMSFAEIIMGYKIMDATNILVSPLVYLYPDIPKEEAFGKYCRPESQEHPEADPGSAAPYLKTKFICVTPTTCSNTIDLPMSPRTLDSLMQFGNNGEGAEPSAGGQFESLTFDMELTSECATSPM

## C=C(C)C(=O)N(Cc1ccc(Br)cc1)C(=O)/C=C/c1cc(OC)c(OC)c(OC)c1
[1]
  GI50: > 10 µM
[2]
  Ratio: 0.9
[3]
  Ratio: 1.1
[4]
  Ratio: 0.7
[5]
  Ratio: 0.5
[6]
  Ratio: 0.2
[7]
  Ratio: 1
[8]
  Ratio: 1
[9]
  Ratio: 0.9
[10]
  Ratio: 0.7
[11]
  Ratio: 0.7
[12]
  Ratio: 0.3 to 0.6
[13]
  Ratio: 1.6
[14]
  Activity: 38.15%
[15]
  Activity: 21.05%
[16]
  Activity: 0.72%
[17]
  Activity: 34.79%
[18]
  Activity: 22.2%
[19]
  Activity: 26.59%
[20]
  Ratio: 0.6
[21]
  Ratio: 0.6
[22]
  Ratio: 0.3
[23]
  Ratio: 1.2
[24]
  Ratio: 2.2
[25]
  Activity: Dose-dependent effect
[26]
  Ratio: 1.8
[27]
  Ratio: 2.2
[28]
  Ratio: 2.3
[29]
  inhibition: Tde
